In patent USRE48335E1, “Polymyxin derivatives as antimicrobial compounds” (priority 2014, dated 2020):
Converted amounts (≈) assume the structure as drawn. Positions of bridges follow the written chain, without caps; N, C: chain ends. Non-standard residues stand in square brackets, D forms with d. Residues, ends and D or L forms follow the SMILES beside them. *: point of attachment. Phenylacetyl(3,4-Cl2) = O=C(Cc1ccc(Cl)c(Cl)c1)*; Phenylacetyl(4-Me) = Cc1ccc(CC(=O)*)cc1; dNva = CCC[C@@H](N)C(=O)O; Octanoyl = CCCCCCCC(=O)*; Dab = NCC[C@H](N)C(=O)O; X39 = O=C(Cc1ccccc1Cl)*; X43 = O=C(c1cccc(F)c1)*; Abu = CC[C@H](N)C(=O)O; Dap = NC[C@H](N)C(=O)O; X34 = Cc1ccccc1CC(=O)*; X35 = O=C(Cc1ccccc1F)*; X44 = O=C(c1ccccc1Cl)*; X27 = Cc1ccccc1C(=O)*; X40 = O=C(c1ccccc1F)*

What was measured:
Pseudomonas aeruginosa = tested on: Pseudomonas aeruginosa
Outline: (§1)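 Read-out is the MIC, obtained by broth microdilution under CLSI guidance. Lipopeptides (TFA salt form) were diluted in cation-adjusted Mueller-Hinton broth, with polymyxin B sulphate run alongside as control.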

Enterobacter cloacae = tested on: Enterobacter cloacae
Outline: as §1

Acinetobacter baumannii = tested on: Acinetobacter baumannii
Outline: as §1

| Structure (SMILES) | Minimum inhibitory concentration, Pa ATCC 27853 (Pseudomonas aeruginosa) | Minimum inhibitory concentration, Pa FADDI-PA022 (Pseudomonas aeruginosa) | Minimum inhibitory concentration, Pa FADDI-PA025 (Pseudomonas aeruginosa) | Minimum inhibitory concentration, Ec FADDI-EC001 (Enterobacter cloacae) | Minimum inhibitory concentration, Ec FADDI-EC003 (Enterobacter cloacae) | Minimum inhibitory concentration, Ec FADDI-EC006 (Enterobacter cloacae) | Minimum inhibitory concentration, Ab A ATCC 17978 (Acinetobacter baumannii) | Minimum inhibitory concentration, Ab ATCC 19606 (Acinetobacter baumannii) | Minimum inhibitory concentration, Ab FADDI-AB034 (Acinetobacter baumannii) |
| --- | --- | --- | --- | --- | --- | --- | --- | --- | --- |
| CCCCCCCC(=O)N[C@@H](CCN)C(=O)N[C@H](C(=O)N[C@@H](CN)C(=O)N[C@H]1CCNC(=O)[C@H]([C@@H](C)O)NC(=O)[C@H](CCN)NC(=O)[C@H](CCN)NC(=O)[C@H](CC)NC(=O)[C@@H](CCC)NC(=O)[C@H](CCN)NC1=O)[C@@H](C)O [Compound 69] (Octanoyl-[Dab]T[Dap][Dab][Dab][dNva][Abu][Dab][Dab]T; lactam 4-C) | 0.5 mg/L (≈ 0.455 µM) | 0.5 mg/L (≈ 0.455 µM) | 8 mg/L (≈ 7.28 µM) | 0.25 mg/L (≈ 0.227 µM) | <0.125 mg/L | <0.125 mg/L | 0.5 mg/L (≈ 0.455 µM) | 0.5 mg/L (≈ 0.455 µM) | 0.25 mg/L (≈ 0.227 µM) |
| CC[C@@H]1NC(=O)[C@@H](CC(C)C)NC(=O)[C@H](CCN)NC(=O)[C@@H](NC(=O)[C@H](CN)NC(=O)[C@@H](NC(=O)[C@H](CCN)NC(=O)c2ccccc2Cl)[C@@H](C)O)CCNC(=O)[C@H]([C@@H](C)O)NC(=O)[C@H](CCN)NC(=O)[C@H](CCN)NC1=O [Compound 72] (X44-[Dab]T[Dap][Dab][Dab][dL][Abu][Dab][Dab]T; lactam 4-C) | 0.5 mg/L (≈ 0.444 µM) | 0.5 mg/L (≈ 0.444 µM) | 4 mg/L (≈ 3.55 µM) | 0.5 mg/L (≈ 0.444 µM) | 0.25 mg/L (≈ 0.222 µM) | 0.5 mg/L (≈ 0.444 µM) | 4 mg/L (≈ 3.55 µM) | 8 mg/L (≈ 7.11 µM) | 4 mg/L (≈ 3.55 µM) |
| CC[C@@H]1NC(=O)[C@@H](CC(C)C)NC(=O)[C@H](CCN)NC(=O)[C@@H](NC(=O)[C@H](CN)NC(=O)[C@@H](NC(=O)[C@H](CCN)NC(=O)c2ccccc2F)[C@@H](C)O)CCNC(=O)[C@H]([C@@H](C)O)NC(=O)[C@H](CCN)NC(=O)[C@H](CCN)NC1=O [Compound 73] (X40-[Dab]T[Dap][Dab][Dab][dL][Abu][Dab][Dab]T; lactam 4-C) | 0.5 mg/L (≈ 0.451 µM) | 1 mg/L (≈ 0.901 µM) | 4 mg/L (≈ 3.61 µM) | 0.25 mg/L (≈ 0.225 µM) | 0.25 mg/L (≈ 0.225 µM) | 1 mg/L (≈ 0.901 µM) | 4 mg/L (≈ 3.61 µM) | 8 mg/L (≈ 7.21 µM) | 4 mg/L (≈ 3.61 µM) |
| CC[C@@H]1NC(=O)[C@@H](CC(C)C)NC(=O)[C@H](CCN)NC(=O)[C@@H](NC(=O)[C@H](CN)NC(=O)[C@@H](NC(=O)[C@H](CCN)NC(=O)c2ccccc2C)[C@@H](C)O)CCNC(=O)[C@H]([C@@H](C)O)NC(=O)[C@H](CCN)NC(=O)[C@H](CCN)NC1=O [Compound 75] (X27-[Dab]T[Dap][Dab][Dab][dL][Abu][Dab][Dab]T; lactam 4-C) | 0.5 mg/L (≈ 0.452 µM) | 1 mg/L (≈ 0.905 µM) | 2 mg/L (≈ 1.81 µM) | 0.25 mg/L (≈ 0.226 µM) | 0.25 mg/L (≈ 0.226 µM) | 0.5 mg/L (≈ 0.452 µM) | 1 mg/L (≈ 0.905 µM) | 1 mg/L (≈ 0.905 µM) | 1 mg/L (≈ 0.905 µM) |
| CC[C@@H]1NC(=O)[C@@H](CC(C)C)NC(=O)[C@H](CCN)NC(=O)[C@@H](NC(=O)[C@H](CN)NC(=O)[C@@H](NC(=O)[C@H](CCN)NC(=O)Cc2ccccc2C)[C@@H](C)O)CCNC(=O)[C@H]([C@@H](C)O)NC(=O)[C@H](CCN)NC(=O)[C@H](CCN)NC1=O [Compound 76] (X34-[Dab]T[Dap][Dab][Dab][dL][Abu][Dab][Dab]T; lactam 4-C) | 0.5 mg/L (≈ 0.447 µM) | 1 mg/L (≈ 0.893 µM) | 4 mg/L (≈ 3.57 µM) | 0.25 mg/L (≈ 0.223 µM) | 0.25 mg/L (≈ 0.223 µM) | 0.5 mg/L (≈ 0.447 µM) | 1 mg/L (≈ 0.893 µM) | 2 mg/L (≈ 1.79 µM) | 1 mg/L (≈ 0.893 µM) |
| CC[C@@H]1NC(=O)[C@@H](CC(C)C)NC(=O)[C@H](CCN)NC(=O)[C@@H](NC(=O)[C@H](CN)NC(=O)[C@@H](NC(=O)[C@H](CCN)NC(=O)Cc2ccc(C)cc2)[C@@H](C)O)CCNC(=O)[C@H]([C@@H](C)O)NC(=O)[C@H](CCN)NC(=O)[C@H](CCN)NC1=O [Compound 80] ({Phenylacetyl(4-Me)}-[Dab]T[Dap][Dab][Dab][dL][Abu][Dab][Dab]T; lactam 4-C) | 0.5 mg/L (≈ 0.447 µM) | 1 mg/L (≈ 0.893 µM) | 2 mg/L (≈ 1.79 µM) | <0.125 mg/L | 0.25 mg/L (≈ 0.223 µM) | 4 mg/L (≈ 3.57 µM) | 1 mg/L (≈ 0.893 µM) | 4 mg/L (≈ 3.57 µM) | 2 mg/L (≈ 1.79 µM) |
| CC[C@@H]1NC(=O)[C@@H](CC(C)C)NC(=O)[C@H](CCN)NC(=O)[C@@H](NC(=O)[C@H](CN)NC(=O)[C@@H](NC(=O)[C@H](CCN)NC(=O)Cc2ccc(Cl)c(Cl)c2)[C@@H](C)O)CCNC(=O)[C@H]([C@@H](C)O)NC(=O)[C@H](CCN)NC(=O)[C@H](CCN)NC1=O [Compound 81] ({Phenylacetyl(3,4-Cl2)}-[Dab]T[Dap][Dab][Dab][dL][Abu][Dab][Dab]T; lactam 4-C) | 2 mg/L (≈ 1.7 µM) | 4 mg/L (≈ 3.41 µM) | 1 mg/L (≈ 0.852 µM) | 0.25 mg/L (≈ 0.213 µM) | <0.125 mg/L | 0.25 mg/L (≈ 0.213 µM) | 0.5 mg/L (≈ 0.426 µM) | 1 mg/L (≈ 0.852 µM) | 0.25 mg/L (≈ 0.213 µM) |
| CC[C@@H]1NC(=O)[C@@H](CC(C)C)NC(=O)[C@H](CCN)NC(=O)[C@@H](NC(=O)[C@H](CN)NC(=O)[C@@H](NC(=O)[C@H](CCN)NC(=O)Cc2ccccc2Cl)[C@@H](C)O)CCNC(=O)[C@H]([C@@H](C)O)NC(=O)[C@H](CCN)NC(=O)[C@H](CCN)NC1=O [Compound 84] (X39-[Dab]T[Dap][Dab][Dab][dL][Abu][Dab][Dab]T; lactam 4-C) | 0.5 mg/L (≈ 0.439 µM) | 2 mg/L (≈ 1.75 µM) | 2 mg/L (≈ 1.75 µM) | <0.125 mg/L | 0.25 mg/L (≈ 0.219 µM) | 0.5 mg/L (≈ 0.439 µM) | 2 mg/L (≈ 1.75 µM) | 8 mg/L (≈ 7.02 µM) | 2 mg/L (≈ 1.75 µM) |
| CC[C@@H]1NC(=O)[C@@H](CC(C)C)NC(=O)[C@H](CCN)NC(=O)[C@@H](NC(=O)[C@H](CN)NC(=O)[C@@H](NC(=O)[C@H](CCN)NC(=O)Cc2ccccc2F)[C@@H](C)O)CCNC(=O)[C@H]([C@@H](C)O)NC(=O)[C@H](CCN)NC(=O)[C@H](CCN)NC1=O [Compound 85] (X35-[Dab]T[Dap][Dab][Dab][dL][Abu][Dab][Dab]T; lactam 4-C) | 0.5 mg/L (≈ 0.445 µM) | 2 mg/L (≈ 1.78 µM) | 2 mg/L (≈ 1.78 µM) | 0.5 mg/L (≈ 0.445 µM) | 1 mg/L (≈ 0.89 µM) | 1 mg/L (≈ 0.89 µM) | 2 mg/L (≈ 1.78 µM) | 4 mg/L (≈ 3.56 µM) | 2 mg/L (≈ 1.78 µM) |
| CC[C@@H]1NC(=O)[C@@H](CC(C)C)NC(=O)[C@H](CCN)NC(=O)[C@@H](NC(=O)[C@H](CN)NC(=O)[C@@H](NC(=O)[C@H](CCN)NC(=O)c2cccc(F)c2)[C@@H](C)O)CCNC(=O)[C@H]([C@@H](C)O)NC(=O)[C@H](CCN)NC(=O)[C@H](CCN)NC1=O [Compound 86] (X43-[Dab]T[Dap][Dab][Dab][dL][Abu][Dab][Dab]T; lactam 4-C) | 0.5 mg/L (≈ 0.451 µM) | 1 mg/L (≈ 0.901 µM) | 2 mg/L (≈ 1.8 µM) | 1 mg/L (≈ 0.901 µM) | 1 mg/L (≈ 0.901 µM) | 1 mg/L (≈ 0.901 µM) | 2 mg/L (≈ 1.8 µM) | 4 mg/L (≈ 3.61 µM) | 1 mg/L (≈ 0.901 µM) |
